# According to the supplement of paper PMC10307832:
# Assays:
# Assay in all cases: relative viability (nuclei count vs DMSO), 5 days (fraction); higher = more cells survive
# Calu-6 = tested on: Calu-6
# Procedure, shortened: (§1)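 Relative viability equals treated-well nuclei counts divided by vehicle-well nuclei counts. Counts came from 4× images of lung cancer cell lines grown in 1536-well plates for 5 days after pin-tool dosing on the day after seeding. Dosing used one drug alone or a fixed anchor-drug dose plus five library-drug doses (not always all listed) in √10 steps, and values are medians of duplicate plates.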
# RERF-LC-KJ = tested on: RERF-LC-KJ
# Procedure, shortened: as §1
# NCI-H2085 = tested on: NCI-H2085
# Procedure, shortened: as §1
# EKVX = tested on: EKVX
# Procedure, shortened: as §1
# EBC-1 = tested on: EBC-1
# Procedure, shortened: as §1
# NCI-H1703 = tested on: NCI-H1703
# Procedure, shortened: as §1
# NCI-H1299 = tested on: NCI-H1299
# Procedure, shortened: as §1
# HCC-44 = tested on: HCC-44
# Procedure, shortened: as §1
# A549 = tested on: A549
# Procedure, shortened: as §1
# IA-LM = tested on: IA-LM
# Procedure, shortened: as §1
# NCI-H2126 = tested on: NCI-H2126
# Procedure, shortened: as §1
# NCI-H1993 = tested on: NCI-H1993
# Procedure, shortened: as §1
# ABC-1 = tested on: ABC-1
# Procedure, shortened: as §1
smiles,measurement,setting,value
O=c1cc(-c2cccc3c2Sc2ccccc2S3)oc(N2CCOCC2)c1 + CC1(C)CCC(c2ccc(Cl)cc2)=C(CN2CCN(c3ccc(C(=O)NS(=O)(=O)c4ccc(N[C@H](CCN5CCOCC5)CSc5ccccc5)c(S(=O)(=O)C(F)(F)F)c4)cc3)CC2)C1 [Navitoclax] (partner 0.5 µM),relative viability,Calu-6; first compound 0.08 µM,0.818
same,relative viability,Calu-6; first compound 0.253 µM,0.765
same,relative viability,Calu-6; first compound 0.8 µM,0.968
same,relative viability,Calu-6; first compound 2.53 µM,0.725
same,relative viability,Calu-6; first compound 8 µM,0.858
same,relative viability,RERF-LC-KJ; first compound 0.08 µM,0.768
same,relative viability,RERF-LC-KJ; first compound 0.253 µM,0.711
same,relative viability,RERF-LC-KJ; first compound 0.8 µM,0.934
same,relative viability,RERF-LC-KJ; first compound 2.53 µM,0.798
same,relative viability,RERF-LC-KJ; first compound 8 µM,0.856
same,relative viability,NCI-H2085; first compound 0.08 µM,1.15
same,relative viability,NCI-H2085; first compound 0.253 µM,1.31
same,relative viability,NCI-H2085; first compound 0.8 µM,1.17
same,relative viability,NCI-H2085; first compound 2.53 µM,1.05
same,relative viability,NCI-H2085; first compound 8 µM,1.07
same,relative viability,EKVX; first compound 0.08 µM,0.975
same,relative viability,EKVX; first compound 0.253 µM,0.998
same,relative viability,EKVX; first compound 0.8 µM,0.888
same,relative viability,EKVX; first compound 2.53 µM,0.954
same,relative viability,EKVX; first compound 8 µM,0.965
same,relative viability,EBC-1; first compound 0.08 µM,0.401
same,relative viability,EBC-1; first compound 0.253 µM,0.376
same,relative viability,EBC-1; first compound 0.8 µM,0.401
same,relative viability,EBC-1; first compound 2.53 µM,0.362
same,relative viability,EBC-1; first compound 8 µM,0.335
same,relative viability,NCI-H1703; first compound 0.253 µM,1.22
same,relative viability,NCI-H1703; first compound 0.8 µM,1.35
same,relative viability,NCI-H1703; first compound 2.53 µM,1.05
same,relative viability,NCI-H1703; first compound 8 µM,1.05
same,relative viability,NCI-H1299; first compound 0.08 µM,1.08
same,relative viability,NCI-H1299; first compound 0.253 µM,1.08
same,relative viability,NCI-H1299; first compound 0.8 µM,1.04
same,relative viability,NCI-H1299; first compound 2.53 µM,1.04
same,relative viability,NCI-H1299; first compound 8 µM,1.04
same,relative viability,HCC-44; first compound 0.08 µM,0.916
same,relative viability,HCC-44; first compound 0.253 µM,1.2
same,relative viability,HCC-44; first compound 0.8 µM,0.859
same,relative viability,HCC-44; first compound 2.53 µM,0.96
same,relative viability,HCC-44; first compound 8 µM,0.905
same,relative viability,A549; first compound 0.08 µM,1.14
same,relative viability,A549; first compound 0.253 µM,1.51
same,relative viability,A549; first compound 0.8 µM,1.47
same,relative viability,A549; first compound 2.53 µM,1.13
same,relative viability,A549; first compound 8 µM,1.37
same,relative viability,IA-LM; first compound 0.08 µM,0.847
same,relative viability,IA-LM; first compound 0.253 µM,1.06
same,relative viability,IA-LM; first compound 0.8 µM,0.815
same,relative viability,IA-LM; first compound 2.53 µM,0.856
same,relative viability,IA-LM; first compound 8 µM,0.963
same,relative viability,NCI-H2126; first compound 0.08 µM,0.808
same,relative viability,NCI-H2126; first compound 0.253 µM,0.974
same,relative viability,NCI-H2126; first compound 0.8 µM,0.8
same,relative viability,NCI-H2126; first compound 2.53 µM,0.826
same,relative viability,NCI-H2126; first compound 8 µM,0.849
same,relative viability,NCI-H1993; first compound 0.08 µM,1.09
same,relative viability,NCI-H1993; first compound 0.253 µM,0.989
same,relative viability,NCI-H1993; first compound 0.8 µM,0.768
same,relative viability,NCI-H1993; first compound 2.53 µM,0.824
same,relative viability,NCI-H1993; first compound 8 µM,0.871
O=c1cc(N2CCOCC2)oc2c(-c3cccc4c3sc3ccccc34)cccc12 + CC(C)C[C@H](NC(=O)[C@H](Cc1ccccc1)NC(=O)c1cnccn1)B(O)O [Bortezomib] (partner 0.002 µM),relative viability,Calu-6; first compound 0.01 µM,1.04
same,relative viability,Calu-6; first compound 0.03162 µM,1.05
same,relative viability,Calu-6; first compound 0.1 µM,1.01
same,relative viability,Calu-6; first compound 0.3162 µM,0.969
same,relative viability,Calu-6; first compound 1 µM,1.03
same,relative viability,ABC-1; first compound 0.01 µM,0.331
same,relative viability,ABC-1; first compound 0.03162 µM,0.347
same,relative viability,ABC-1; first compound 0.1 µM,0.336
same,relative viability,ABC-1; first compound 0.3162 µM,0.261
same,relative viability,ABC-1; first compound 1 µM,0.332
same,relative viability,RERF-LC-KJ; first compound 0.01 µM,1.1
same,relative viability,RERF-LC-KJ; first compound 0.03162 µM,1.12
same,relative viability,RERF-LC-KJ; first compound 0.1 µM,1.13
same,relative viability,RERF-LC-KJ; first compound 0.3162 µM,1.22
same,relative viability,RERF-LC-KJ; first compound 1 µM,1.09
same,relative viability,NCI-H2085; first compound 0.01 µM,0.995
same,relative viability,NCI-H2085; first compound 0.03162 µM,1.01
same,relative viability,NCI-H2085; first compound 0.1 µM,1.03
same,relative viability,NCI-H2085; first compound 0.3162 µM,1.06
same,relative viability,NCI-H2085; first compound 1 µM,0.967
same,relative viability,EKVX; first compound 0.01 µM,1.03
same,relative viability,EKVX; first compound 0.03162 µM,1.09
same,relative viability,EKVX; first compound 0.1 µM,1.02
same,relative viability,EKVX; first compound 0.3162 µM,1.11
same,relative viability,EKVX; first compound 1 µM,1.05
same,relative viability,EBC-1; first compound 0.01 µM,0.569
same,relative viability,EBC-1; first compound 0.03162 µM,0.538
same,relative viability,EBC-1; first compound 0.1 µM,0.505
same,relative viability,EBC-1; first compound 0.3162 µM,0.555
same,relative viability,EBC-1; first compound 1 µM,0.49
same,relative viability,NCI-H1703; first compound 0.01 µM,0.333
same,relative viability,NCI-H1703; first compound 0.03162 µM,0.274
same,relative viability,NCI-H1703; first compound 0.1 µM,0.356
same,relative viability,NCI-H1703; first compound 0.3162 µM,0.403
same,relative viability,NCI-H1703; first compound 1 µM,0.296
same,relative viability,NCI-H1299; first compound 0.01 µM,1.04
same,relative viability,NCI-H1299; first compound 0.03162 µM,1.01
same,relative viability,NCI-H1299; first compound 0.1 µM,0.984
same,relative viability,NCI-H1299; first compound 0.3162 µM,1.03
same,relative viability,NCI-H1299; first compound 1 µM,1.08
same,relative viability,HCC-44; first compound 0.01 µM,0.889
same,relative viability,HCC-44; first compound 0.03162 µM,0.875
same,relative viability,HCC-44; first compound 0.1 µM,0.906
same,relative viability,HCC-44; first compound 0.3162 µM,0.881
same,relative viability,HCC-44; first compound 1 µM,0.896
same,relative viability,IA-LM; first compound 0.01 µM,0.837
same,relative viability,IA-LM; first compound 0.03162 µM,0.904
same,relative viability,IA-LM; first compound 0.1 µM,0.784
same,relative viability,IA-LM; first compound 0.3162 µM,0.896
same,relative viability,IA-LM; first compound 1 µM,0.74
same,relative viability,NCI-H2126; first compound 0.01 µM,1.14
same,relative viability,NCI-H2126; first compound 0.03162 µM,1.11
same,relative viability,NCI-H2126; first compound 0.1 µM,1.13
same,relative viability,NCI-H2126; first compound 0.3162 µM,1.06
same,relative viability,NCI-H2126; first compound 1 µM,1.14
same,relative viability,NCI-H1993; first compound 0.01 µM,1
same,relative viability,NCI-H1993; first compound 0.03162 µM,1.09
same,relative viability,NCI-H1993; first compound 0.1 µM,1.33
same,relative viability,NCI-H1993; first compound 0.3162 µM,1.11
same,relative viability,NCI-H1993; first compound 1 µM,1.07
